Data reported in patent US11028369B2, “Induced extended pluripotent stem cells, method of making and using” (Beihao Stem Cell and Regenerative Medicine Research …, priority 2015, dated 2021).
Where a name gives a salt, the structure may show the parent alone.

How the values were obtained:
[1] = system: hEPS cells; experiment: Maintenance of hEPS cells after withdrawal or replacement of DiM or MiH; format: cell-based, human; details: for maintenance of hEPS cells when DiM or MiH is replaced: inhibitor of the same target replaces DiM or MiH in LCDM; for maintenance of hEPS cells when DiM is replaced by MAPK signaling inhibitor: replacement of DiM
Protocol: FIGS. 4A and 4B show the profiles of H3K4me3 and H3K27me3 chromatin marks over all genes in primed hES (n=2, technical replicates) and hEPS (n=2, technical replicates) cells. The standard error of mean (SEM) across the regions is calculated and shown as a semi-transparent shade around the mean curve. FIGS. 4C-D are bar graphs showing Q-PCR analysis of selected gene expression in hEPS cells under different conditions at passage 7. DiM (((S)-(+)-Dimethindene maleate) (FIG. 4C) and MiH (Minocycline hydrochloride) (FIG. 4D) were replaced with small molecules targeting to the same targets in the LCDM [hLIF (human leukemia inhibitory factor), CHIR99021, DiM, and MiH] condition. hEPS cells were cultured under LCM condition with an added small molecule selected from: DiM (2 μM), TH(5 μM), DES(5 μM), or cultured with DMSO (dimethyl sulfoxide) respectively (FIG. 4C) or under LCD condition with an added small molecule selected from MiH, BSI-201 (5 μM), NAM (100 μM), PJ34 (N-(6-Oxo-5,6-dihydro-phenanthridin-2-yl)-N,N-dimethylacetamide. HCl) (5 μM), or DMSO (FIG. 4D). Expression values are normalized to the mean value of the LCM+DiM (FIG. 4C) and LCD+MiH (FIG. 4D) sample. LCM: human LIF+CHIR99021+MiH; LCD: human LIF+CHIR99021+DiM. Center values indicate mean. Error bars indicate s.d. (n=3, technical replicates). TH: Tripelennamine HCL; DES: Desloratadine; BSI: BSI-201; NAM: Nicotinamide. […] Expression values are normalized to the mean value of the scramble control. Center values indicate mean. Error bars indicate s.d. (n=3, technical replicates). FIG. 4F is a bar graph showing a summary of chimera assays at E12.5. […] FIG. 4G is a bar graph showing a summary of chimeric assays of single-cell injection at the 8-cell embryo stage. […] ICM & TE, embryos with the integration of mouse cells into both ICM and TE.
Human and mouse extended pluripotent stem cells were cultured in serum-free N2B27-LCDM medium in 20% O2, 5% CO2 conditions. To maintain human EPS cells in an undifferentiated state, the following criteria were used: a) avoidance of plating human EPS cells too sparsely; b) use of the proper quantity of freshly prepared MEF feeder cells; and c) not allowing human EPS cells to overgrow (for example, attain more than 90% confluence; preferably, the cells should be at less than 90% confluent). Accordingly, human and mouse EPS cells were cultured on mitomycin C-inactivated mouse embryonic fibroblast (MEF) feeder cells (3×10^4 cells per cm^2), and were passaged by single-cell trypsinization (0.05% trypsin-EDTA, Invitrogen) every 2-4 days (normally at a split ratio of 1:6 to 1:10). Passage numbers of EPS cells indicate number of passages counted after the acquirement of the extended pluripotent state. The N2B27-LCDM medium was changed every day with fresh LCDM medium.
Finally, the roles of DiM and MiH in maintaining EPS cells were investigated. […] Furthermore, similar results were obtained when MiH was replaced by the knockdown of PARP1 in hEPS cells (FIG. 4E). Importantly, both mEPS and hEPS cells still retained their ability of contributing to both TE and ICM in blastocysts under such conditions (FIG. 6C, 6D, and data not shown).

[2] = system: primed hES/hPS H9 cells; experiment: Screen for dome-shaped hES colony formation / TGFβ signaling-independent self-renewal; format: cell-based, human; details: hLIF+2i + candidate with SB431542
From the text: Primed hES are flat colonies. By contrast, naïve human pluripotent cells are dome-shaped colonies. Therefore, any resultant human EPS cells can be morphologically distinguished from primed human pluripotent stem cells.
Positive candidates from the first screen above were further screened in order to identify small molecules that support TGFβ signaling-independent self-renewal of hES cells (Tesar, et al., Dev., 448:196-199 (2007); James, et al.,Dev., 132:1273-1282 (2005); Vallier, et al., J. Cell. Sci., 118:4495-4509 (2005)). A TGFβ inhibitor SB431542 was added to the chemical cocktail (2i+LIF+candidate) at the later stage of treatment (FIG. 1A).
Specifically, primed hES/hPS H9 cells were digested into single cells using ACCUTASE® (cell detachment solution), and seeded into a matrigel-coated 24-well plate (1×10^4 cells per well) on day 0 in conventional hES medium plus Y27632. On day 1, the conventional hES medium was replaced by the N2B27 medium supplemented with the hLIF+2i base, and candidates from the first round screen were added individually into each well. The medium was changed every two days and replaced with fresh N2B27 medium supplemented with hLIF+2i. 6 days later (i.e., on day 7), a TGF (transforming growth factor) β inhibitor, SB431542 (10 μm, Tocris), was added into wells with un-differentiated cells for another 6 days. […]

[3] = system: mEPS cells; experiment: Chimeric analysis of mEPS cells cultured under different conditions (injection into 8-cell embryos); format: cell-based, mouse; details: chimeric blastocysts; for developmental potency of mEPS cells when DiM is replaced by MAPK signaling inhibitor: replacement of DiM
Protocol: FIGS. 6A and 6B show PCA of RNA-seq and microarray data from EPS cells and known pluripotent cell types. […] Data were normalized to mES cells in each study. […] Data were normalized to primed hPSCs in each study. […] Circles: RNA-seq data; triangles: microarray data. […] Parp1 knockout mEPS cells (Parp1-KO) were cultured in LCDM condition without MiH (-MiH). mEPS cells were cultured under different conditions for at least 5 passages before injection. Multiple cells were injected into 8-cell embryos, which were cultured for additional 60 hours before further analysis. […] ICM & TE, embryos with the integration of mouse cells into both ICM and TE. […] ICM & TE, embryos with the integration of mouse cells into both ICM and TE. TH: TripelennamineHCL; DES: Desloratadine; NAM: Nicotinamide. PD: PD0325901; SB: SB203580; SP: SP600125.
For injection of Tdtomato-labeled mEPS cells and conventional naïve mouse ES cells, mEPS and naïve mouse ES cells were trypsinized and microinjected in the same way as for hEPS cells except that Y27632 was not added into the suspension.
The cells used in this experiment were cultured and prepared in a way that was similar to that of the multiple-cell microinjections. The cell suspension was placed on ice for 20-30 minutes before injection. After being placed on ice, the digested single cells were used for injection within 1 hour: in other words, the whole injection process should not take more than 30 minutes. Afterward, the injected embryos are recovered for 1-2 hours in a humidified incubator with 5% CO2 at 37° C. If the cells were placed on ice for more than 1 hour, then another batch of cells was digested for the remaining injections. […] After 60 hours, the embryos were fixed and immunostained.

[4] = withdrawal of either DiM or MiH

For `NC(=O)c1ccc(I)c([N+](=O)[O-])c1` [BSI-201, 4-iodo-3-nitrobenzamide], the “maintenance of hEPS cells when DiM or MiH is replaced” value [1] was “could be replaced with other inhibitors targeting the same targets for the maintenance of hEPS cells”.
With `Clc1ccc2c(c1)CCc1cccnc1C2=C1CCNCC1` [Desloratadine] the “maintenance of hEPS cells when DiM or MiH is replaced” value [1] was “could be replaced with other inhibitors targeting the same targets for the maintenance of hEPS cells”.
In the case of `C[C@@H](C1=C(CCN(C)C)Cc2ccccc21)c1ccccn1.O=C(O)/C=C\C(=O)O` [DiM, (S)-(+)-Dimethindene maleate], the “effect of withdrawal from LCDM on hEPS cells” value [1, 4] is reported as “rapid differentiation of hEPS cells within days after plating”, the “dome-shaped hES colony formation” value [2] is reported as “support dome-shaped hES colony formation” and the “effect of withdrawal from LCDM on developmental potency of mEPS cells” value [3, 4] is reported as “significantly impaired the developmental potency of mEPS cells”.
For `NC(=O)c1cccnc1` [Nicotinamide], the “maintenance of hEPS cells when DiM or MiH is replaced” value [1] was “could be replaced with other inhibitors targeting the same targets for the maintenance of hEPS cells”.
In the case of `O=C(NOC[C@H](O)CO)c1ccc(F)c(F)c1Nc1ccc(I)cc1F` [PD0325901], the “maintenance of hEPS cells when DiM is replaced by MAPK signaling inhibitor” value [1] is reported as “could not maintain hEPS cells” and the “developmental potency of mEPS cells when DiM is replaced by MAPK signaling inhibitor” value [3] is reported as “could not preserve the developmental potency of mEPS cells”.
`C[S+]([O-])c1ccc(-c2nc(-c3ccncc3)c(-c3ccc(F)cc3)[nH]2)cc1` (centres unmarked) [SB203580] was tested, and the “maintenance of hEPS cells when DiM is replaced by MAPK signaling inhibitor” value [1] was “could not maintain hEPS cells” and the “developmental potency of mEPS cells when DiM is replaced by MAPK signaling inhibitor” value [3] was “could not preserve the developmental potency of mEPS cells”.
With `CN(C)CCN(Cc1ccccc1)c1ccccn1` [TripelennamineHCL, Tripelennamine HCL] the “maintenance of hEPS cells when DiM or MiH is replaced” value [1] was “could be replaced with other inhibitors targeting the same targets for the maintenance of hEPS cells”.
